Where a name gives a salt, the structure may show the parent alone.
Columns and labels:
[1] = target: T1, Human LOXL2 (Homo sapiens, UniProt Q9Y4K0); experiment: LOXL2 amine oxidase inhibition, peroxidase-coupled Amplex Red assay; format: biochemical; settings: 30 min preincubation at 37° C., putrescine substrate
T1 sequence (Q9Y4K0 26-774): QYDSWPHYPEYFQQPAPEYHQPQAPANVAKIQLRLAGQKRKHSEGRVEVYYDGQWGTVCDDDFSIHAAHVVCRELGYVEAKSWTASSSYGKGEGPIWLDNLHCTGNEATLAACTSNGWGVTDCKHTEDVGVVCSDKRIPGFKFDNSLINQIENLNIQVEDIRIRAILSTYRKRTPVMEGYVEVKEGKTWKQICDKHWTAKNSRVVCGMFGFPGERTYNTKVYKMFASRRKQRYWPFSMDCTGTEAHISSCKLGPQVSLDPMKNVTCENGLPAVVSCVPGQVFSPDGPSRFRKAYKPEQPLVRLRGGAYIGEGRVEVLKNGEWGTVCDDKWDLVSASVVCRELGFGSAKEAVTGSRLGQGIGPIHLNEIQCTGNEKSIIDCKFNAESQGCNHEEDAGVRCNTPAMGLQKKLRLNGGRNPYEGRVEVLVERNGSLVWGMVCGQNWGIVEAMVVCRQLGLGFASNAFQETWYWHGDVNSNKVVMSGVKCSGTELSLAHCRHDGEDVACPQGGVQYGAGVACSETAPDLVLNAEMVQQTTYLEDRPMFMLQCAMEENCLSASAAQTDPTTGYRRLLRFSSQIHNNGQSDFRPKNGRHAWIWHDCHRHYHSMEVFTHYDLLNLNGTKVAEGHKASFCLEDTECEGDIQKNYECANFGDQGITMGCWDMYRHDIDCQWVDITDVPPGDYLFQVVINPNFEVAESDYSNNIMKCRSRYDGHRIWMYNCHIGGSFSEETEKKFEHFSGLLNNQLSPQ
How it was run: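 Enzyme preincubated 30 min at 37 °C with compound (11-point curve) in 1.2 M urea, 50 mM borate pH 8.2 plus 1 μM mofegiline and 0.5 mM pargyline; putrescine at twice KM (10 mM for LOXL2), Amplex Red and HRP added. Fluorescence (565/590 nm) read every 2.5 min for 30 min; IC50 from kinetic slopes.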

[2] = target: T2, Recombinant human MAO-B (Homo sapiens, UniProt P27338); experiment: Human recombinant MAO-B inhibition; format: biochemical; settings: benzylamine 100 μM
T2 construct: purchased Sigma Aldrich
T2 sequence (P27338 1-520): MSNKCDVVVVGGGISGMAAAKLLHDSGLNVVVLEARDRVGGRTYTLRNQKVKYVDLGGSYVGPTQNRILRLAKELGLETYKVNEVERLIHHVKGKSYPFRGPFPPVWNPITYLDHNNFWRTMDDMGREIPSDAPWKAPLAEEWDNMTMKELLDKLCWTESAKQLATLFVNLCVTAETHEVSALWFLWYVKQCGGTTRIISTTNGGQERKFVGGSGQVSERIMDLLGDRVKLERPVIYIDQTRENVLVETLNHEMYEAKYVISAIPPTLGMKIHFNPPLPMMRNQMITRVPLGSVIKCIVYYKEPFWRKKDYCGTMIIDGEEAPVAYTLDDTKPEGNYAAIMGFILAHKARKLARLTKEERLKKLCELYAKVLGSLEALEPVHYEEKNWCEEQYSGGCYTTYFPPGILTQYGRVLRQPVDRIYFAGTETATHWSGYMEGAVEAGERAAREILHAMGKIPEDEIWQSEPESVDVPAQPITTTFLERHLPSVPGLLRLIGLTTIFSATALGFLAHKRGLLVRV
Procedure: Method to Determine the Ability of Compounds of Formula I to Inhibit Human Recombinant MAO-B
The specificity of the compounds of this invention was tested by determining their ability to inhibit MAO-B activities in vitro. Recombinant human MAO-B (0.06 mg/mL; Sigma Aldrich) was used as source of MAO-B enzyme activities. The assay was performed in a similar way as for human SSAO/VAP-1 (Example 46) except, the substrate benzylamine was used at 100 μM.

Compound	IC50 [1]	IC50 [2]
Cc1nn(C/C(F)=C/CN)c(C)c1Cc1ccc(S(=O)(=O)N2CCOCC2)cc1 [Compound 6, (Z)-4-(3,5-dimethyl-4-(4-(morpholinosulfonyl)benzyl)-1H-pyrazol-1-yl)-3-fluorobut-2-en-1-amine hydrochloride]	< 1 µM	> 30 µM
CN(C)S(=O)(=O)c1ccc(-c2cnn(C/C(F)=C/CN)c2)cc1 [Compound 1, (Z)-4-(1-(4-amino-2-fluorobut-2-en-1-yl)-1H-pyrazol-4-yl)-N,N-dimethyl benzenesulfonamide hydrochloride]	< 1 µM	> 10 µM
Cc1nn(C/C(F)=C/CN)c(C)c1Cc1ccc(S(C)(=O)=O)cc1 [Compound 4, (Z)-4-(3,5-dimethyl-4-(4-(methylsulfonyl)benzyl)-1H-pyrazol-1-yl)-3-fluorobut-2-en-1-amine hydrochloride]	< 1 µM	> 30 µM
Cc1nn(C/C(F)=C/CN)c(C)c1Cc1ccc(S(=O)(=O)N(C)C)c2ccccc12 [Compound 9, (Z)-4-((1-(4-amino-2-fluorobut-2-en-1-yl)-3,5-dimethyl-1H-pyrazol-4-yl)methyl)-N,N-dimethyl naphthalene-1-sulfonamide hydrochloride]	< 1 µM	> 10 µM
CCc1nn(C/C(F)=C/CN)c(CC)c1Cc1ccc(S(=O)(=O)N(C)C)cc1 [Compound 13, (Z)-4-((1-(4-amino-2-fluorobut-2-en-1-yl)-3,5-diethyl-1H-pyrazol-4-yl)methyl)-N,N-dimethyl benzenesulfonamide hydrochloride]	< 1 µM	> 30 µM
Cc1nn(C/C(F)=C/CN)c(C)c1Cc1ccc(S(=O)(=O)NC(C)C)cc1 [Compound 11, (Z)-4-((1-(4-amino-2-fluorobut-2-en-1-yl)-3,5-dimethyl-1H-pyrazol-4-yl)methyl)-N-isopropyl benzenesulfonamide hydrochloride]	< 1 µM	> 30 µM
Cc1nn(Cc2ccc(S(=O)(=O)N(C)C)cc2)c(C)c1C/C(F)=C/CN [Compound 10, (Z)-4-((4-(4-amino-2-fluorobut-2-en-1-yl)-3,5-dimethyl-1H-pyrazol-1-yl)methyl)-N,N-dimethylbenzenesulfonamide hydrochloride]	< 1 µM	> 10 µM
Cc1nn(C/C(F)=C/CN)c(C)c1Cc1ccc(S(=O)(=O)N(C)C)cc1 [Compound 2, (Z)-4-((1-(4-amino-2-fluorobut-2-en-1-yl)-3,5-dimethyl-1H-pyrazol-4-yl)methyl)-N,N-dimethylbenzenesulfonamide hydrochloride]	< 1 µM	> 30 µM
Cc1nn(C/C(F)=C/CN)c(C)c1Cc1ccc(S(=O)(=O)N(C)C)c(Cl)c1 [Compound 15, (Z)-4-((1-(4-amino-2-fluorobut-2-en-1-yl)-3,5-dimethyl-1H-pyrazol-4-yl)methyl)-2-chloro-N,N-dimethylbenzenesulfonamide hydrochloride]	< 1 µM	> 30 µM
Cc1nn(C/C(F)=C/CN)c(C)c1Cc1ccc(S(=O)(=O)N(C)C(C)C)cc1 [Compound 8, (Z)-4-((1-(4-amino-2-fluorobut-2-en-1-yl)-3,5-dimethyl-1H-pyrazol-4-yl)methyl)-N-isopropyl-N-methylbenzenesulfonamide hydrochloride]	< 1 µM	> 30 µM
Cc1nn(C/C(F)=C/CN)c(C)c1Cc1ccc(S(=O)(=O)N(C)C)cc1Cl [Compound 3, (Z)-4-((1-(4-amino-2-fluorobut-2-en-1-yl)-3,5-dimethyl-1H-pyrazol-4-yl)methyl)-3-chloro-N,N-dimethylbenzenesulfonamide hydrochloride]	< 1 µM	> 30 µM

Other lines, results leading:

IC50 [1]	IC50 [2]	Compound
< 1 µM	> 30 µM	Cc1nn(C/C(F)=C/CN)c(C(C)O)c1Cc1ccc(S(=O)(=O)N(C)C)c(Cl)c1 (single isomer, unassigned) [Compound 52, (Z)-4-((1-(4-amino-2-fluorobut-2-en-1-yl)-5-(1-hydroxyethyl)-3-methyl-1H-pyrazol-4-yl)methyl)-2-chloro-N,N-dimethylbenzenesulfonamide hydrochloride]
< 1 µM	> 30 µM	Cc1nn(C/C(F)=C/CN)c(C(=O)O)c1Cc1ccc(S(=O)(=O)N(C)C)cc1 [Compound 30, (Z)-1-(4-amino-2-fluorobut-2-enyl)-4-(4-(N,N-dimethylsulfamoyl)benzyl)-3-methyl-1H-pyrazole-5-carboxylic acid hydrochloride]
< 1 µM	> 30 µM	Cc1nn(C/C(F)=C/CN)c(C)c1Cc1ccc(S(=O)(=O)N(C)C)c(C(F)(F)F)c1 [Compound 18, (Z)-4-((1-(4-amino-2-fluorobut-2-en-1-yl)-3,5-dimethyl-1H-pyrazol-4-yl)methyl)-N,N-dimethyl-2-(trifluoromethyl)benzenesulfonamide hydrochloride]
< 1 µM	> 30 µM	Cc1c(Cc2ccc(S(=O)(=O)N(C)C)cc2)c(C(=O)O)nn1C/C(F)=C/CN [Compound 31, (Z)-1-(4-amino-2-fluorobut-2-enyl)-4-(4-(N,N-dimethylsulfamoyl)benzyl)-5-methyl-1H-pyrazole-3-carboxylic acid hydrochloride]
< 1 µM	> 30 µM	Cc1nn(C/C(F)=C/CN)c(C)c1Cc1ccc(S(C)(=O)=O)c(Cl)c1 [Compound 16, (Z)-4-(4-(3-chloro-4-(methylsulfonyl)benzyl)-3,5-dimethyl-1H-pyrazol-1-yl)-3-fluorobut-2-en-1-amine hydrochloride]
< 1 µM	> 30 µM	Cc1nn(Cc2cc(F)c(S(=O)(=O)N(C)C)cc2F)c(C)c1C/C(F)=C/CN [Compound 25, (Z)-4-((4-(4-amino-2-fluorobut-2-en-1-yl)-3,5-dimethyl-1H-pyrazol-1-yl)methyl)-2,5-difluoro-N,N-dimethylbenzenesulfonamide hydrochloride]
< 1 µM	> 30 µM	Cc1nn(C/C(F)=C/CN)c(C(C)O)c1Cc1ccc(S(=O)(=O)N(C)C)c(Cl)c1 (single isomer, unassigned) [Compound 53, (Z)-4-((1-(4-amino-2-fluorobut-2-en-1-yl)-5-(1-hydroxyethyl)-3-methyl-1H-pyrazol-4-yl)methyl)-2-chloro-N,N-dimethylbenzenesulfonamide hydrochloride]
< 10 µM	> 30 µM	Cc1nn(C/C(F)=C/CN)c(C)c1Cc1ccc(C(=O)N(C)C)cc1 [Compound 14, (Z)-4-((1-(4-amino-2-fluorobut-2-en-1-yl)-3,5-dimethyl-1H-pyrazol-4-yl)methyl)-N,N-dimethylbenzamide hydrochloride]
< 1 µM	> 30 µM	Cc1nn(Cc2ccc(S(C)(=O)=O)c(Cl)c2)c(C)c1C/C(F)=C/CN [Compound 24, (Z)-4-(1-(3-chloro-4-(methylsulfonyl)benzyl)-3,5-dimethyl-1H-pyrazol-4-yl)-3-fluorobut-2-en-1-amine hydrochloride]

Source: patent US20200069648A1, “HALOALLYLAMINE PYRAZOLE DERIVATIVE INHIBITORS OF LYSYL OXIDASES AND USES THEREOF” (Pharmaxis Ltd., priority 2017, published 2020)
